Test results reported in patent US20050020557A1, “Method for treating diseases using HSP90-inhibiting agents in combination with enzyme inhibitors” (Kosan Biosciences, Inc., priority 2003, published 2005).

Legend:
[1] = clinical trials; twice-weekly regimen; sole agent; cited from earlier work
ErbB2 protein [2] = assay: ErbB2 protein expression in SKBr3 cells; assay type: cell-based, human
ErbB2 protein [3] = assay: ErbB2 protein expression in glioma cells; assay type: cell-based
[4] = system: SKBr-3 cells (human breast cancer cells); assay: Cell viability (MTS) drug combination assay, combination index by median effect analysis, SKBr-3 cells; assay type: cell-based; settings: combination of enzyme inhibitor with 17-AAG, CI<1 synergism, CI=1 additivity, CI>1 antagonism; for CI value, 17-AAG Pre-Administration: 17-AAG 24 h before enzyme inhibitor (48 h); for CI value, 17-AAG Post-Administration: enzyme inhibitor 24 h, then 17-AAG for 48 h
Protocol: Human colon adenocarcinoma cell line, DLD-1, and human breast adenocarcinoma cell line, SKBr-3, were obtained from American Type Culture Collection (manassas, Va.). […] Other cytotoxic agents were purchased commercially from suppliers such as Sigma Chemical Co. (St. Louis, Mo.) and Sequoia Research Products (Oxford, UK). Cells were seeded in duplicate in 96-well microtiter plates at a density of 5,000 cells per well and allowed to attach overnight. […] Cell viability was determined using the MTS assay (Promega). […] Based on the IC50 values of each individual drug, combined drug treatment was designed at constant ratios of two drugs, i.e., equivalent to the ratio of their IC50. Two treatment schedules were used: In one schedule, the cells were exposed to 24 hours of 17-AAG or 17-DMAG. The drug was then added to the cells and incubated for 48 hours. […] Cell viability was determined by the MTS assay. Synergism, additivity or antagonism was determined by median effect analysis using the combination index (CI) calculated using Calcusyn (Biosoft, Cambridge, UK). […] The “enhancing” effect of two drugs can also be determined.

[5] = system: DLD-1 cells (human colorectal cancer cells); assay: Cell viability (MTS) drug combination assay, combination index by median effect analysis, DLD-1 cells; assay type: cell-based; settings: combination of enzyme inhibitor with 17-AAG, CI<1 synergism, CI=1 additivity, CI>1 antagonism
Protocol: Human colon adenocarcinoma cell line, DLD-1, and human breast adenocarcinoma cell line, SKBr-3, were obtained from American Type Culture Collection (manassas, Va.). […] 17-DMAG and 17-AAG were obtained using published procedures. Other cytotoxic agents were purchased commercially from suppliers such as Sigma Chemical Co. (St. Louis, Mo.) and Sequoia Research Products (Oxford, UK).
Cells were seeded in duplicate in 96-well microtiter plates at a density of 5,000 cells per well and allowed to attach overnight. […] Cell viability was determined using the MTS assay (Promega). For the drug combination assay, cells were seeded in duplicate in 96-well plates (5,000 cells/well). […] Based on the IC50 values of each individual drug, combined drug treatment was designed at constant ratios of two drugs, i.e., equivalent to the ratio of their IC50. Two treatment schedules were used: In one schedule, the cells were exposed to 24 hours of 17-AAG or 17-DMAG. The drug was then added to the cells and incubated for 48 hours. […] Cell viability was determined by the MTS assay.
Synergism, additivity or antagonism was determined by median effect analysis using the combination index (CI) calculated using Calcusyn (Biosoft, Cambridge, UK). […] The “enhancing” effect of two drugs can also be determined.

| Compound | MTD (maximum tolerated dose) [1] | expression of ErbB2 protein (ErbB2 protein [2]) | expression of ErbB2 protein (ErbB2 protein [3]) | CI value, 17-AAG Pre-Administration [4] | CI value, 17-AAG Post-Administration [4] | CI value, 17-AAG Pre-Administration ([5]; 17-AAG 24 h before enzyme inhibitor (48 h)) | CI value, 17-AAG Post-Administration ([5]; enzyme inhibitor 24 h, then 17-AAG for 48 h) |
| --- | --- | --- | --- | --- | --- | --- | --- |
| C=CCNC1=C2C[C@@H](C)C[C@H](OC)[C@H](O)[C@@H](C)/C=C(\C)[C@H](OC(N)=O)[C@@H](OC)/C=C\C=C(/C)C(=O)NC(=CC1=O)C2=O [17-AAG, 17-(allylamino)-17-desmethoxygeldanamycin] | about 220 mg/m2 | reduced the expression of ErbB2 protein | reduced the expression of ErbB2 protein |  |  |  |  |
| COc1cc2ncnc(Nc3ccc(F)c(Cl)c3)c2cc1OCCCN1CCOCC1 [Iressa] |  |  |  | 0.77 ± 0.29 | 0.67 ± 0.02 | 0.76 ± 0.37 | 0.41 ± 0.01 |
| CC(/C=C/C(=O)NO)=C\[C@@H](C)C(=O)c1ccc(N(C)C)cc1 [Trichostatin A] |  |  |  | 1.16 ± 0.02 | 0.91 ± 0.007 |  |  |
